BindingDB's records for doi:10.1016/j.bmcl.2016.04.028 (Chinese Academy of Sciences (Cas), 2016)

Columns and labels:
[1] = Inhibition of FGFR1 in human KG1 cells assessed as suppression of cell proliferation after 72 hrs by SRB/CCK-8 assay
[2] = Inhibition of FGFR1 in human H1581 cells assessed as suppression of cell proliferation after 72 hrs by SRB/CCK-8 assay
[3] = Inhibition of FGFR3 in human RT112 cells assessed as suppression of cell proliferation after 72 hrs by SRB/CCK-8 assay

IC50 [1]: < 0.2 nM | IC50 [2]: < 0.5 nM | IC50 [3]: < 0.2 nM
SMILES: COc1cc(CCc2cc(Nc3ncnc4cc(N5CCN6CCCCC6C5)ccc34)n[nH]2)cc(OC)c1 (stereo not drawn)
